In US20240246931A1, “COMPOUNDS AS PD1/PD-L1 INHIBITORS AND METHODS THEREOF” (JUBILANT PRODEL LLC, priority 2021, published 2024):

Tests used:
[1] = biological target: T1, PD-1/PD-L1 interaction (Homo sapiens, UniProt Q9NZQ7); assay: PD-1/PD-L1 HTRF binding assay (CisBio kit); settings: HTRF PD1/PD-L1 inhibition assay
T1 construct: purchased CisBio 63ADK000CPAPEG
Summary of the method: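 HTRF kit assay: compound was preincubated 15 min with tagged PD-L1 and PD-1 proteins, then Eu-cryptate and XL665 anti-tag antibodies were added for 1 h at room temperature. Readout was the 665/620 nm ratio ×10^4. IC50 was binned as A <100 nM, B 100–500 nM, C >500 nM.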

[2] = Metabolic stability in human liver microsomes; type: in vitro ADME; settings: human liver microsomes 1.0 mg/mL, compound 1 μM, NADPH, first number of HLM/MLM cell
From the text: (§1) Metabolic Stability in Liver Microsomes
(§2) The purpose of this experiment is to measure the metabolic half-life of NCEs in sub-cellular fractions such as human liver microsomes (HLM) or mouse liver microsomes (MLM). This provides an in vitro means to calculate intrinsic hepatic clearance, and to support the prediction of human pharmacokinetics. This approach has been successfully utilized at early phase of drug discovery projects, to provide SAR input for reducing metabolic instability and for predicting in vivo hepatic clearance.
(§3) Procedure: Potassium phosphate buffer (66.7 mM, pH 7.4) containing liver microsomes (mouse and human) (1.0 mg/mL) was pre-incubated separately with compound (1 μM) and positive control (verapamil, 1 μM) in a 37° C. water bath for 5 min. The reactions were initiated by adding 20 μL of 10 mM NADPH. Reactions without NADPH (0 and 30 min) were also incubated to rule out non-NADPH metabolism or chemical instability in the incubation buffer. All reactions were terminated using 200 μL of ice-cold acetonitrile containing internal standard at 0, 5, 15 and 30 min. The vials were centrifuged at 3000 rpm for 15 min. The supernatants thus obtained were analyzed on LC-MS/MS to monitor the disappearance of test compound.

[3] = Metabolic stability in mouse liver microsomes; type: in vitro ADME; settings: mouse liver microsomes 1.0 mg/mL, compound 1 μM, NADPH, second number of HLM/MLM cell
From the text: as §1, §2, §3

T1 sequence (Q9NZQ7 19-238 limits assumed): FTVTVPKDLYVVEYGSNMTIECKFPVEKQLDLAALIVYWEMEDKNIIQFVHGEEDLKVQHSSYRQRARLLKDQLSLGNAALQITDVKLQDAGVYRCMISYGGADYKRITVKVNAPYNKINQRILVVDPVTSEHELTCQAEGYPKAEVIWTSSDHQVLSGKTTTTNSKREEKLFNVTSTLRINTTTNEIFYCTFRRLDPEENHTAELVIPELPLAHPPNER

| SMILES | IC50 [1] [µM] | HLM % remaining @ 30 min [2] | MLM % remaining @ 30 min [3] |
| --- | --- | --- | --- |
| N#Cc1cncc(COc2cc(OCc3cccc(-c4ccccc4)c3C#N)c3c(c2CN2CCC[C@H]2CO)CCC3)c1 [Example 3, (S)-5-(((7-((2-cyano-[1,1′-biphenyl]-3-yl)methoxy)-4-((2-(hydroxymethyl)pyrrolidin-1-yl)methyl)-2,3-dihydro-1H-inden-5-yl)oxy)methyl)nicotinonitrile] | < 0.1 | 22% | 14% |
| N#Cc1cccc(COc2cc(OCc3cccc(-c4ccccc4)c3C#N)c3c(c2CN2CCC[C@H]2CO)CCC3)c1 [Example 4, (S)-3-(((6-((3-cyanobenzyl)oxy)-7-((2-(hydroxymethyl)pyrrolidin-1-yl)methyl)-2,3-dihydro-1H-inden-4-yl)oxy)methyl)-[1,1′-biphenyl]-2-carbonitrile] | < 0.1 | 20/20% | 20/20% |
| N#Cc1cncc(COc2cc(OCc3cccc(-c4ccccc4)c3C#N)c3c(c2CN2CCCC[C@H]2CO)CCC3)c1 [Example 5, (S)-5-(((7-((2-cyano-[1,1′-biphenyl]-3-yl)methoxy)-4-((2-(hydroxymethyl)piperidin-1-yl)methyl)-2,3-dihydro-1H-inden-5-yl)oxy)methyl)nicotinonitrile] | < 0.1 | 16% | 13% |
| Cc1c(COc2cc(OCc3cncc(C#N)c3)c(CN3C[C@H](O)C[C@H]3CO)c3c2CCC3)cccc1-c1ccccc1 [Example 6] | < 0.1 | 67% | 87% |
| Cc1c(COc2cc(OCc3cccc(C#N)c3)c(CN3CCC[C@H]3CO)c3c2CCC3)cccc1-c1ccccc1 [Example 7, (S)-3-(((4-((2-(hydroxymethyl)pyrrolidin-1-yl)methyl)-7-((2-methyl-[1,1′-biphenyl]-3-yl)methoxy)-2,3-dihydro-1H-inden-5-yl)oxy)methyl)benzonitrile] | < 0.1 | 66% | 76% |
| Cc1c(COc2cc(OCc3cncc(C#N)c3)c(CN3CCC[C@H]3CO)c3c2CCC3)cccc1-c1ccccc1 [Example 8, (S)-5-(((4-((2-(hydroxymethyl)pyrrolidin-1-yl)methyl)-7-((2-methyl-[1,1′-biphenyl]-3-yl)methoxy)-2,3-dihydro-1H-inden-5-yl)oxy)methyl)nicotinonitrile] | < 0.1 | 61% | 85% |
| Cc1c(COc2cc(OCc3cncc(C#N)c3)c(CN3CC4(CCC3CO)CC4)c3c2CCC3)cccc1-c1ccccc1 (stereo not drawn) [Example 11, 5-(((4-((6-(hydroxymethyl)-5-azaspiro[2.5]octan-5-yl)methyl)-7-((2-methyl-[1,1′-biphenyl]-3-yl)methoxy)-2,3-dihydro-1H-inden-5-yl)oxy)methyl)nicotinonitrile] | < 0.1 | 21% | 11% |
| Cc1c(COc2cc(OCc3cncc(C#N)c3)c(CN3CC4(CC4)C[C@H]3CO)c3c2CCC3)cccc1-c1ccccc1 [Example 25, (S)-5-(((4-((6-(hydroxymethyl)-5-azaspiro[2.4]heptan-5-yl)methyl)-7-((2-methyl-[1,1′-biphenyl]-3-yl)methoxy)-2,3-dihydro-1H-inden-5-yl)oxy)methyl)nicotinonitrile] | < 0.1 | 45% | 61% |
| N#Cc1cncc(COc2cc(OCc3cccc(-c4ccccc4)c3C#N)c3c(c2CN2CC4(CC4)C[C@H]2CO)CCC3)c1 [Example 26, (S)-5-(((7-((2-cyano-[1,1′-biphenyl]-3-yl)methoxy)-4-((6-(hydroxymethyl)-5-azaspiro[2.4]heptan-5-yl)methyl)-2,3-dihydro-1H-inden-5-yl)oxy)methyl)nicotinonitrile] | < 0.1 | 6% | 5% |

Results, then the molecule that gave them:

| IC50 [1] [µM] | HLM % remaining @ 30 min [2] | MLM % remaining @ 30 min [3] | SMILES |
| --- | --- | --- | --- |
| < 0.1 | 8% | 21% | Cc1c(COc2cc(OCc3cncc(C#N)c3)c(CN3CCOC[C@H]3CO)c3c2CCC3)cccc1-c1ccccc1 [Example 9, (R)-5-(((4-((3-(hydroxymethyl)morpholino)methyl)-7-((2-methyl-[1,1′-biphenyl]-3-yl)methoxy)-2,3-dihydro-1H-inden-5-yl)oxy)methyl)nicotinonitrile] |
| < 0.1 | 69% | 70% | Cc1c(COc2cc(OCc3cncc(C#N)c3)c(CN3CCC3CO)c3c2CCC3)cccc1-c1ccccc1 (stereo not drawn) [Example 10, 5-(((4-((2-(hydroxymethyl)azetidin-1-yl)methyl)-7-((2-methyl-[1,1′-biphenyl]-3-yl)methoxy)-2,3-dihydro-1H-inden-5-yl)oxy)methyl)nicotinonitrile] |
| < 0.1 | 27% | 25% | N#Cc1c(COc2cc(OCC(F)(F)F)c(CN3CCCC[C@H]3CO)c3c2CCC3)cccc1-c1ccccc1 [Example 23, (S)-3-(((7-((2-(hydroxymethyl)piperidin-1-yl)methyl)-6-(2,2,2-trifluoroethoxy)-2,3-dihydro-1H-inden-4-yl)oxy)methyl)-[1,1′-biphenyl]-2-carbonitrile] |
| < 0.1 | 72% | 67% | Cc1c(COc2cc(OCC(F)(F)F)c(CN3CCCC[C@H]3CO)c3c2CCC3)cccc1-c1ccccc1 [Example 24, (S)-(1-((7-((2-methyl-[1,1′-biphenyl]-3-yl)methoxy)-5-(2,2,2-trifluoroethoxy)-2,3-dihydro-1H-inden-4-yl)methyl)piperidin-2-yl)methanol] |
| < 0.1 | 74% | 82% | Cc1c(COc2cc(OCCF)c(CN3CCC[C@H]3CO)c3c2CCC3)cccc1-c1ccccc1 [Example 28, (S)-(1-((5-(2-fluoroethoxy)-7-((2-methyl-[1,1′-biphenyl]-3-yl)methoxy)-2,3-dihydro-1H-inden-4-yl)methyl)pyrrolidin-2-yl)methanol] |
| < 0.1 | 56% | 71% | N#Cc1c(COc2cc(OCCF)c(CN3CCCC[C@H]3CO)c3c2CCC3)cccc1-c1ccccc1 [Example 29, (S)-3-(((6-(2-fluoroethoxy)-7-((2-(hydroxymethyl)piperidin-1-yl)methyl)-2,3-dihydro-1H-inden-4-yl)oxy)methyl)-[1,1′-biphenyl]-2-carbonitrile] |
| < 0.1 | 57% | 74% | Cc1c(COc2cc(OCCCCCF)c(CN3CCCC[C@H]3CO)c3c2CCC3)cccc1-c1ccccc1 [Example 30, (S)-(1-((5-((5-fluoropentyl)oxy)-7-((2-methyl-[1,1′-biphenyl]-3-yl)methoxy)-2,3-dihydro-1H-inden-4-yl)methyl)piperidin-2-yl)methanol] |
| < 0.1 | 81% | 84% | Cc1c(COc2cc(OCCCF)c(CN3CCCC[C@H]3CO)c3c2CCC3)cccc1-c1ccccc1 [Example 32, (S)-(1-((5-(3-fluoropropoxy)-7-((2-methyl-[1,1′-biphenyl]-3-yl)methoxy)-2,3-dihydro-1H-inden-4-yl)methyl)piperidin-2-yl)methanol] |
| < 0.1 | 8% | 5% | Cc1c(COc2cc(OCc3cccc(C#N)c3)c(CN3CCCC4CC43CO)c3c2CCC3)cccc1-c1ccccc1 (stereo not drawn) [Example 34, 3-(((4-((1-(hydroxymethyl)-2-azabicyclo[4.1.0]heptan-2-yl)methyl)-7-((2-methyl-[1,1′-biphenyl]-3-yl)methoxy)-2,3-dihydro-1H-inden-5-yl)oxy)methyl)benzonitrile] |
| < 0.1 | 3/3% | 3/3% | Cc1c(COc2cc(OCc3cncc(C#N)c3)c(CN3CCCC4CC43CO)c3c2CCC3)cccc1-c1ccccc1 (stereo not drawn) [Example 35, 5-(((4-((1-(hydroxymethyl)-2-azabicyclo[4.1.0]heptan-2-yl)methyl)-7-((2-methyl-[1,1′-biphenyl]-3-yl)methoxy)-2,3-dihydro-1H-inden-5-yl)oxy)methyl)nicotinonitrile] |
| < 0.1 | 86% | 88% | Cc1c(COc2cc(OCc3cncc(C(N)=O)c3)c(CN3CCCC[C@H]3CO)c3c2CCC3)cccc1-c1ccccc1 [Example 37, (S)-5-(((4-((2-(hydroxymethyl)piperidin-1-yl)methyl)-7-((2-methyl-[1,1′-biphenyl]-3-yl)methoxy)-2,3-dihydro-1H-inden-5-yl)oxy)methyl)nicotinamide] |
